Literature values in patent US6852335B2, “Folic acid in solid dosage forms” (Shaklee Corporation, priority 1999, dated 2005).

Details: 25° C. (The Merck Index, 12th edition)

For Nc1nc2ncc(CNc3ccc(C(=O)N[C@@H](CCC(=O)O)C(=O)O)cc3)nc2c(=O)[nH]1 [Folic acid], the solubility in water is given as “approximately 1.6 mcg/ml”.
